The values that follow come from patent US20230295087A1, “AGONISTS OF ROR GAMMAt” (BRISTOL-MYERS SQUIBB COMPANY, priority 2019, published 2023).

For orientation: EC50 means the concentration that produces a half-maximal response. A low value points to an effect from little substance.

The test addresses T1, human RORgT (Homo sapiens, UniProt P51449).
T1 construct: expressed in transfected cells
T1 sequence (P51449 267-516): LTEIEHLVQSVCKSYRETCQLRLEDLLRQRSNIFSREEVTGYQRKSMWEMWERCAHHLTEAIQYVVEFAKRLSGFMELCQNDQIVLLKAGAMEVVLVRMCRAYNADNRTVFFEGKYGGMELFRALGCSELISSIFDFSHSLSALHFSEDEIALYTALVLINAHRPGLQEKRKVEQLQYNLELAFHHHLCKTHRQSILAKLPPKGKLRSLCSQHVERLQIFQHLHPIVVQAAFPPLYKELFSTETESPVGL
Nature of the test: RORgT Gal4 Luciferase Reporter Gene Assay. The format is cell-based. Particulars: engineered Jurkat cells overexpressing RORgT (LBD or full length) fused with Gal4 Luc reporter; 18 hours at 37° C.; luminescence. In a few lines: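 Jurkat cells expressing Gal4 Luc with either RORgT LBD (aa267-516) or full-length human RORgT, 10,000 cells/well, treated with compound (40 µM to 0.67 nM final, 3-fold dilutions) for 18 h at 37° C. Steady-Glo luminescence read; inhibition of constitutive activity as % signal-window reduction relative to a control compound.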
Regarding `O=C(C1CCS(=O)(=O)CC1)N1CC[C@@]2(S(=O)(=O)c3ccc(F)cc3)c3ccc(OCc4cc(F)ccc4Cl)cc3CC[C@@H]12` [Example 181, 4-[(3aR,9bR)-7-[(2-chloro-5-fluorophenyl)methoxy]-9b-(4-fluorobenzenesulfonyl)-1H,2H,3H,3aH,4H,5H,9bH-benzo[e]indole-3-carbonyl]-1λ^6-thiane-1,1-dione], the EC50 came to 8.8 nM.

On to `CC(=O)N1CCC(C(=O)N2CC[C@@]3(S(=O)(=O)c4ccc(F)cc4)c4ccc(OCc5c(F)cccc5C(F)(F)F)cc4CC[C@@H]23)CC1` [Example 182, 1-{4-[(3aR,9bR)-7-{[2-fluoro-6-(trifluoromethyl)phenyl]methoxy}-9b-(4-fluorobenzenesulfonyl)-1H,2H,3H,3aH,4H,5H,9bH-benzo[e]indole-3-carbonyl]piperidin-1-yl}ethan-1-one], for which the EC50 was 16 nM.

In turn, `COC(=O)[C@H]1CC[C@H](C(=O)N2CC[C@@]3(S(=O)(=O)c4ccc(F)cc4)c4ccc(OCc5c(F)cccc5C(F)(F)F)cc4CC[C@@H]23)CC1` [Example 183, methyl (1r,4r)-4-[(3aR,9bR)-7-{[2-fluoro-6-(trifluoromethyl)phenyl]methoxy}-9b-(4-fluorobenzenesulfonyl)-1H,2H,3H,3aH,4H,5H,9bH-benzo[e]indole-3-carbonyl]cyclohexane-1-carboxylate] displayed an EC50 of 48 nM. As for `CN1CCC(C(=O)N2CC[C@@]3(S(=O)(=O)c4ccc(F)cc4)c4ccc(OCc5c(F)cccc5C(F)(F)F)cc4CC[C@@H]23)CC1` [Example 184, 4-[(3aR,9bR)-7-{[2-fluoro-6-(trifluoromethyl)phenyl]methoxy}-9b-(4-fluorobenzenesulfonyl)-1H,2H,3H,3aH,4H,5H,9bH-benzo[e]indole-3-carbonyl]-1-methylpiperidine], the figure is 68 nM; as for `NS(=O)(=O)CC(=O)N1CC[C@@]2(S(=O)(=O)c3ccc(F)cc3)c3ccc(OCc4c(F)cccc4C(F)(F)F)cc3CC[C@@H]12` [Example 185, 2-[(3aR,9bR)-7-{[2-fluoro-6-(trifluoromethyl)phenyl]methoxy}-9b-(4-fluorobenzenesulfonyl)-1H,2H,3H,3aH,4H,5H,9bH-benzo[e]indol-3-yl]-2-oxoethane-1-sulfonamide], 90 nM; as for `O=C(C1CCS(=O)(=O)C1)N1CC[C@@]2(S(=O)(=O)c3ccc(F)cc3)c3ccc(OCc4c(F)cccc4C(F)(F)F)cc3CC[C@@H]12` (stereo partly drawn) [Example 187, 3-[(3aR,9bR)-7-{[2-fluoro-6-(trifluoromethyl)phenyl]methoxy}-9b-(4-fluorobenzenesulfonyl)-1H,2H,3H,3aH,4H,5H,9bH-benzo[e]indole-3-carbonyl]-1λ^6-thiolane-1,1-dione], 10 nM.

`CS(=O)(=O)CC(=O)N1CC[C@@]2(S(=O)(=O)c3ccc(F)cc3)c3ccc(OCc4c(F)cccc4C(F)(F)F)cc3CC[C@@H]12` [Example 188, 1-[(3aR,9bR)-7-{[2-fluoro-6-(trifluoromethyl)phenyl]methoxy}-9b-(4-fluorobenzenesulfonyl)-1H,2H,3H,3aH,4H,5H,9bH-benzo[e]indol-3-yl]-2-methanesulfonylethan-1-one] registered a concentration giving a half-maximal response (EC50) of 75 nM. Regarding `CC(=O)N1CCC(C(=O)N2CC[C@@]3(S(=O)(=O)c4ccc(F)cc4)c4ccc(OCc5c(Cl)cccc5Cl)cc4CC[C@@H]23)CC1` [Example 189, 1-{4-[(3aR,9bR)-7-[(2,6-dichlorophenyl)methoxy] -9b-(4-fluorobenzenesulfonyl)-1H,2H,3H,3aH,4H,5H,9bH-benzo[e]indole-3-carbonyl]piperidin-1-yl}ethan-1-one], a half-maximal response (EC50) required 41 nM.

`CS(=O)(=O)N1CCC(C(=O)N2CC[C@@]3(S(=O)(=O)c4ccc(F)cc4)c4ccc(OCc5c(Cl)cccc5Cl)cc4CC[C@@H]23)CC1` [Example 190, 4-[(3aR,9bR)-7-[(2,6-dichlorophenyl)methoxy]-9b-(4-fluorobenzenesulfonyl)-1H,2H,3H,3aH,4H,5H,9bH-benzo[e]indole-3-carbonyl]-1-methanesulfonylpiperidine] came in with an EC50 of 8.7 nM. As for `CS(=O)(=O)CC(=O)N1CC[C@@]2(S(=O)(=O)c3ccc(F)cc3)c3ccc(OCc4c(Cl)cccc4Cl)cc3CC[C@@H]12` [Example 191, 1-[(3 aR,9bR)-7-[(2,6-dichlorophenyl)methoxy] -9b-(4-fluorobenzenesulfonyl)-1H,2H,3H,3aH,4H,5H,9bH-benzo[e]indol-3-yl]-2-methanesulfonylethan-1-one], the figure is 134 nM; as for `O=C(O)[C@H]1CC[C@H](C(=O)N2CC[C@@]3(S(=O)(=O)c4ccc(F)cc4)c4ccc(OCc5ccc(F)cc5Cl)cc4CC[C@@H]23)CC1` [Example 193, (1r,4r)-4-[(3aR,9bR)-7-[(2-chloro-4-fluorophenyl)methoxy]-9b-(4-fluorobenzenesulfonyl)-1H,2H,3H,3aH,4H,5H,9bH-benzo[e]indole-3-carbonyl]cyclohexane-1-carboxylic acid], 46 nM. As for `NS(=O)(=O)CC(=O)N1CC[C@@]2(S(=O)(=O)c3ccc(F)cc3)c3ccc(OCc4cc(F)ccc4Cl)cc3CC[C@@H]12` [Example 194, 2-[(3aR,9bR)-7-[(2-chloro-5-fluorophenyl)methoxy]-9b-(4-fluorobenzenesulfonyl)-1H,2H,3H,3aH,4H,5H,9bH-benzo[e]indol-3-yl]-2-oxoethane-1-sulfonamide], the figure is 189 nM; as for `CS(=O)(=O)CC(=O)N1CC[C@@]2(S(=O)(=O)c3ccc(F)cc3)c3ccc(OCc4cc(F)ccc4Cl)cc3CC[C@@H]12` [Example 195, 1-[(3 aR,9bR)-7-[(2-chloro-5-fluorophenyl)methoxy]-9b-(4-fluorobenzenesulfonyl)-1H,2H,3H,3aH,4H,5H,9bH-benzo[e]indol-3-yl]-2-methanesulfonylethan-1-one], 158 nM. As for `CC(=O)N1CCC(C(=O)N2CC[C@@]3(S(=O)(=O)c4ccc(F)cc4)c4ccc(OCc5cc(Cl)ccc5Cl)cc4CC[C@@H]23)CC1` [Example 196, 1-{4-[(3aR,9bR)-7-[(2,5-dichlorophenyl)methoxy] -9b-(4-fluorobenzenesulfonyl)-1H,2H,3H,3aH,4H,5H,9bH-benzo[e]indole-3-carbonyl]piperidin-1-yl}ethan-1-one], the figure is 37 nM; as for `O=C(CN1CCS(=O)(=O)CC1)N1CC[C@@]2(S(=O)(=O)c3ccc(F)cc3)c3ccc(OCc4cc(Cl)ccc4Cl)cc3CC[C@@H]12` [Example 197, 4-{2-[(3aR,9bR)-7-[(2,5-dichlorophenyl)methoxy] -9b-(4-fluorobenzenesulfonyl)-1H,2H,3H,3aH,4H,5H,9bH-benzo[e]indol-3-yl]-2-oxoethyl}-1λ^6-thiomorpholine-1,1-dione], 49 nM. In turn, `NC(=O)N1CCC(C(=O)N2CC[C@@]3(S(=O)(=O)c4ccc(F)cc4)c4ccc(OCc5ccc(F)cc5Cl)cc4CC[C@@H]23)CC1` [Example 198, 4-[(3aR,9bR)-7-[(2-chloro-4-fluorophenyl)methoxy]-9b-(4-fluorobenzenesulfonyl)-1H,2H,3H,3aH,4H,5H,9bH-benzo[e]indole-3-carbonyl] piperidine-1-carboxamide] came in with an EC50 of 19 nM. With `O=C(C1CCS(=O)(=O)C1)N1CC[C@@]2(S(=O)(=O)c3ccc(F)cc3)c3ccc(OCc4cc(Cl)ccc4Cl)cc3CC[C@@H]12` (stereo partly drawn) [Example 199, 3-[(3aR,9bR)-7-[(2,5-dichlorophenyl)methoxy]-9b-(4-fluorobenzenesulfonyl)-1H,2H,3H,3aH,4H,5H,9bH-benzo[e]indole-3-carbonyl]-1λ^6-thiolane-1,1-dione] the figure was 8.7 nM; with `O=C(C1CCS(=O)(=O)CC1)N1CC[C@@]2(S(=O)(=O)c3ccc(F)cc3)c3ccc(OCc4cc(Cl)ccc4Cl)cc3CC[C@@H]12` [Example 200, 4-[(3aR,9bR)-7-[(2,5-dichlorophenyl)methoxy]-9b-(4-fluorobenzenesulfonyl)-1H,2H,3H,3aH,4H,5H,9bH-benzo[e]indole-3-carbonyl]-1λ^6-thiane-1,1-dione], 7.5 nM; with `O=C(C1CCS(=O)(=O)C1)N1CC[C@@]2(S(=O)(=O)c3ccc(F)cc3)c3ccc(OCc4ccc(F)cc4Cl)cc3CC[C@@H]12` (stereo partly drawn) [Example 201, 3-[(3aR,9bR)-7-[(2-chloro-4-fluorophenyl)methoxy]-9b-(4-fluorobenzenesulfonyl)-1H,2H,3H,3aH,4H,5H,9bH-benzo[e]indole-3-carbonyl]-1λ^6-thiolane-1,1-dione], 40 nM. With `NC(=O)N1CCC(C(=O)N2CC[C@@]3(S(=O)(=O)c4ccc(F)cc4)c4ccc(OCc5cc(Cl)ccc5Cl)cc4CC[C@@H]23)CC1` [Example 202, 4-[(3aR,9bR)-7-[(2,5-dichlorophenyl)methoxy]-9b-(4-fluorobenzenesulfonyl)-1H,2H,3H,3aH,4H,5H,9bH-benzo[e]indole-3-carbony1]piperidine-1-carboxamide] the figure was 15 nM. With `COC(=O)[C@H]1CC[C@H](C(=O)N2CC[C@@]3(S(=O)(=O)c4ccc(F)cc4)c4ccc(OCc5cc(Cl)ccc5Cl)cc4CC[C@@H]23)CC1` [Example 203, methyl (1r,4r)-4-[(3aR,9bR)-7-[(2,5-dichlorophenyl)methoxy] -9b-(4-fluorobenzenesulfonyl)-1H,2H,3H,3aH,4H,5H,9bH-benzo[e]indole-3-carbonyl] cyclohexane-1-carboxylate] the figure was 111 nM; with `CN1CCC(C(=O)N2CC[C@@]3(S(=O)(=O)c4ccc(F)cc4)c4ccc(OCc5cc(Cl)ccc5Cl)cc4CC[C@@H]23)CC1` [Example 204, 4-[(3aR,9bR)-7-[(2,5-dichlorophenyl)methoxy]-9b-(4-fluorobenzenesulfonyl)-1H,2H,3H,3aH,4H,5H,9bH-benzo[e]indole-3-carbonyl]-1-methylpiperidine], 76 nM.
